In this data set the test system is coccidiosis. Kind of data set: Control of coccidiosis by medicated feed (general statements). It is filed as in vivo, poultry (turkeys, chickens). The source says: Thus, the compositions of this invention not only control coccidiosis, but also, aid in improving the efficiency of conversion of feed to weight gains.
Thus, for example, a feed premix or complete feed contains sufficient active ingredient to provide from about 0.001% to about 0.0125% by weight of the daily feed consumption. Preferably, about 0.00312% to 0.00625% by weight is used. Generally, about 0.005% to about 0.006% of the active ingredient is sufficient for the purpose of controlling and combating coccidiosis.
Even though amounts over 0.00625% are efficacious for combating coccidiosis, this amount is the preferred upper range because of economics, i.e., the cost per unit of effectiveness is lowest within this range. Amounts lower than 0.001% and in some cases lower than 0.003% are not effective for combating coccidiosis. Preferred is a lower limit of 0.00312% because this insures efficaciousness. The most preferred amount, i.e., about 0.005% to about 0.006% by weight of the poultry daily feed consumption is particularly efficacious since it achieves maximum effect with minimum dose. The range of the weight amounts of active antibiotic in the dried unfiltered broth solids which are efficacious for combating coccidiosis is the same as for the crystalline material or its salts. For example, when administered in feed to chicks so as to contain a dosage of 0.003% of active ingredient, the crude dried unfiltered broth results in an average degree of infection of 1.4 while at the same dosage, the sodium salt of the crystalline antibiotic results in an average degree of infection of 1.7. At a dosage equivalent to a concentration of active ingredient of 0.006%, the dried material results in an average degree of infection of 0.0 while the sodium salt of the crystalline antibiotic results in an average degree of infection of 0.2.

With `CCC(C(=O)C(C)C(O)C(C)CCc1ccc(C)c(O)c1C(=O)O)C1OC(CC)(C2CCC(O)(CC)C(C)O2)CC1C` (stereo not drawn) [antibiotic X-537A], the Effectiveness against coccidiosis entry was “effective against coccidiosis, do not generally show improved results over 0.0125%” (amounts greater than 0.0125% of feed); “not effective” (amounts lower than 0.001% and in some cases lower than 0.003% of feed). Also, the “Effect on growth, feed efficiency and mortality” value (amounts greater than 0.0125% of feed, in some cases) is “may adversely affect the growth, feed efficiency and mortality”. In addition, the “Toxicity / untoward side effects” value (at dosages necessary to control coccidiosis) is “not toxic and shows no untoward side effects”. The “Weight of treated fowl compared to controls” value (oral, as component of feed) is “either maintain their weight or actually gain weight”. For the same compound, where the note is “oral, as component of feed, turkeys and chickens”, the Control of coccidiosis result is on record as “effectively controls the disease”.

(Values after patent publication USRE29244E, “Coccidiostats” (priority 1976, dated 1977).)
